Assays:
[1] = tested on: release of excitatory amino acids, principally glutamate; conditions: at anticonvulsant brain concentrations; cited from earlier work
[2] = tested on: scopolamine-induced deficit in rats; experiment: Light-dark box memory test in rats, scopolamine-induced deficit, single dose pre-training (Tables 3 and 4); type: in vivo, Male Wistar rats; conditions: for Mean latency Day 1 / Mean latency Day 2: ± SEM
Description: Male Wistar rats obtained from Charles River were used. They were housed under controlled conditions (temperature 21±2 deg. C., humidity approx. 50%, 12 hour light/dark cycle, food and water ad lib) for one week before use. On the day before test the rats were permanently housed in groups of six. Food and water were supplied ad lib. On the test day, animals were weighed and then dosed either 30 minutes before test (midazolam), one hour before test (compound A) or immediately after test.
All drugs were dissolved or suspended in 0.25% (w/v) aqueous celacol, and administered orally (by gavage), i.p. or s.c. The dose volume was 5 ml/kg for all routes.
An identical apparatus to that described in Example 1 was used, except that the smaller box measured 370 mm×260 mm×190 mm.
This consisted of training as described for mice under section (d) of Example 1.
(§1) Test drugs or control fluids were given before or immediately after the training session.
This was as described under section (e) of Example 1.

[3] = tested on: scopolamine-induced deficit in mice; experiment: Modified light-dark box memory test in mice, scopolamine-induced deficit, drug given pre-training (Table 1); type: in vivo, Male albino CD-1 mice; conditions: for Mean latency Day 1 / Mean latency Day 2: ± SEM
Description: Male albino CD-1 mice obtained from Charles River were used. They were housed under controlled conditions (temperature 21±2 deg. C., humidity approx. 50%, 12 hour light/dark cycle, food and water ad lib) for one week before use. On the day before test, the mice were housed in groups of six in polythene boxes in the laboratory and marked for identification. Food and water were supplied ad lib. On the test day, animals were weighed and then dosed either 30 minutes before test (piracetam, ondansetron) one hour before test (compound A) or immediately after test.
All drugs were dissolved or suspended in 0.25% (w/v) aqueous celacol, and administered orally (by gavage), i.p. or s.c. The dose volume was 10 ml/kg for all routes.
The apparatus consisted of two boxes with an opening 90 mm×60 mm at floor level between them. A plastic door was used to close the opening when required. The smaller box (290 mm×120 mm×120 mm high) was made of opaque plastics, open at the top to allow illumination by normal laboratory lighting. The larger box (305 mm square×280 mm high) was enclosed apart from the single opening.
This consisted of training, with retest 24 hours later. During training, animals were placed individually in the open box facing away from the end with the opening. After a period of exploration, they usually entered the dark box and the latency to entry in seconds was noted. The door to the dark box was closed, and after 30 seconds had elapsed, the animal was removed gently and returned to the holding box. Twenty-four hours later, an identical procedure was used, except that the session ended as soon as the animal had entered the dark box. The latency was again noted. During the interval, the animals were not handled, and were disturbed as little as possible. Each animal was used once only.
as §1
Group comparisons were made between latencies to enter the dark compartment on the first and second occasions. For both training and retest occasions, comparisons were made between vehicle and treatment groups. […] The difference between latencies on the two occasions is presented as % decrease on Day 2 compared with Day 1.
The mean latency to enter the dark box±standard error of the mean was calculated from a group of 12 animals. For a given treatment, figures in the columns labelled `Day 1` and `Day 2` show the mean latencies taken from the same group of animals. The difference between data obtained on the two days is illustrated by showing the % decrease, and the data compared using the Mann-Whitney U-test; NS indicates a p value>0.1.

[4] = saline s.c. + compound A 40 mg/kg p.o.
[5] = scopolamine 0.1 mg/kg s.c. + compound A 10 mg/kg p.o.
[6] = scopolamine 0.1 mg/kg s.c. + compound A 20 mg/kg p.o.
[7] = scopolamine 0.1 mg/kg s.c. + compound A 40 mg/kg p.o.
[8] = saline s.c. + compound A 40 mg/kg p.o., 1 h pre-training
[9] = scopolamine 1 mg/kg s.c. + compound A 10 mg/kg p.o.
[10] = scopolamine 1 mg/kg s.c. + compound A 20 mg/kg p.o.
[11] = scopolamine 1 mg/kg s.c. + compound A 40 mg/kg p.o.

SMILES: Nc1nnc(-c2cccc(Cl)c2Cl)c(N)n1 [Compound A, 3,5-Diamino-6-(2,3-dichlorophenyl)-1,2,4-triazine]
- Inhibition of release of excitatory amino acids, principally glutamate [1]: inhibit the release of excitatory amino acids, principally glutamate
- Difference between days, % Decrease ([2]; saline s.c. + compound A 40 mg/kg p.o., p <0.001): 50%
- Mean latency Day 1 [2, 4]: 38.3 ± 3.8 s
- Mean latency Day 2 [2, 4]: 19.3 ± 3.0 s
- Difference between days, % Decrease ([2]; scopolamine 0.1 mg/kg s.c. + compound A 10 mg/kg p.o., p NS): 0%
- Mean latency Day 1 [2, 5]: 40.8 ± 4.8 s
- Mean latency Day 2 [2, 5]: 40.8 ± 4.6 s
- Difference between days, % Decrease ([2]; scopolamine 0.1 mg/kg s.c. + compound A 20 mg/kg p.o., p NS*): 16%
- Mean latency Day 1 [2, 6]: 37.7 ± 4.4 s
- Mean latency Day 2 [2, 6]: 31.7 ± 3.9 s
- Difference between days, % Decrease ([2]; scopolamine 0.1 mg/kg s.c. + compound A 40 mg/kg p.o., p <0.01): 45%
- Mean latency Day 1 [2, 7]: 38.4 ± 4.1 s
- Mean latency Day 2 [2, 7]: 21.1 ± 3.6 s
- Difference between days, % Decrease ([3]; saline s.c. + compound A 40 mg/kg p.o., 1 h pre-training, p <0.01): 45%
- Mean latency Day 1 [3, 8]: 23.3 ± 3.4 s
- Mean latency Day 2 [3, 8]: 12.8 ± 1.2 s
- Difference between days, % Decrease ([3]; scopolamine 1 mg/kg s.c. + compound A 10 mg/kg p.o., p NS): 13%
- Mean latency Day 1 [3, 9]: 19.6 ± 1.7 s
- Mean latency Day 2 [3, 9]: 17.1 ± 2.2 s
- Difference between days, % Decrease ([3]; scopolamine 1 mg/kg s.c. + compound A 20 mg/kg p.o., p <0.05): 28%
- Mean latency Day 1 [3, 10]: 18.6 ± 2.4 s
- Mean latency Day 2 [3, 10]: 13.3 ± 1.5 s
- Difference between days, % Decrease ([3]; scopolamine 1 mg/kg s.c. + compound A 40 mg/kg p.o., p <0.001): 56%
- Mean latency Day 1 [3, 11]: 22.1 ± 3.2 s
- Mean latency Day 2 [3, 11]: 9.7 ± 1.2 s
